Measured values as given in PMC2999418, “Biological Activity and Binding Site Characteristics of the PA1b Entomotoxin on Insects from Different Orders” (Journal of Insect Science, 2007).

Tests used:
[1] = system: M. brassicae protein extracts; test: PA1b degradation assay with total insect protein extract; type: in vitro ADME, Mamestra brassicae; details: 200 µg M. brassicae (L3) total protein extract, 10 µg PA1b, pH 3 to 9, 30°C, one night incubation; C18 HPLC; data not shown
Protocol: (§1) The isolation of membrane proteins for binding studies was performed as described by Gressent et al. ([2003]). For PA1b degradation tests, insect extracts were prepared as follows, 1 g of insects were ground with a mortar and pestle in liquid nitrogen. The resulting powder was resuspended in 2 ml of extraction buffer (20 mM Tris-HCl pH 8; 0.25 M sucrose; 2 mM MgCl2). The slurry was centrifuged for 2 min at 1000 g, and the supernatant was stored at -2O°C until required. All the operations were performed at 4°C.
(§2) PA1b degradation assays were performed using 10 µg of peptide (PA1b isoform mixture) in a final volume of 100 µl buffer. […]
(§3) For all assays, after a one night incubation, 150 µl of methanol were added to the mixture and incubated for 60 min at 4°C. […] PA1b peptide isoforms were detected by their absorbance at 210 nm, quantified by the measurement of the peak area and with reference to known quantities of pure peptide isoform used as standards.

[2] = system: A. gossypii protein extracts; test: as above; type: in vitro ADME, Aphis gossypii; details: 200 µg A. gossypii (L4) proteins, 10 µg PA1b in 100 µl, 20 mM buffers pH 3 to 9, 30°C, one night incubation; C18 HPLC, UV 210 nm; mean of triplicates
Protocol: as §1, §2, §3
Figure 3. […] Degradation of PA1b was monitored after incubation by reverse-phase HPLC. […]

Harmonia axyridis = test: Ladybeetle development and survival on artificial diet supplemented with toxin; type: in vivo; details: 250 µg/g of food
Protocol: The ladybeetle Harmonia axyridis (Coleoptera) was grown on a pork liver-based artificial diet (Specty et al., unpublished results), and tests were performed using a diet supplemented with the toxin. The development was monitored from L3 up to the pupal stage.
(§4) All toxicity assays were carried out using a mixture of PA1b isoforms (98% purity by HPLC). All tests were performed on at least 30 insects for assays and for control test (without toxin), except for the three aphid species (50 insects) and for Trichogramma (more than 300 eggs by assays). When adults were used, the insects were synchronized at the imaginal molt. The statistical analyses were performed using the JMP software (SAS, Grégy-sur-Yerres FRA).
Figure 1. Effects of PA1b on the lady beetle H. axyridis. Tests were done with artificial diet supplemented with the toxin (250 µg/g), and the development of the insects was monitored daily. First bar, control insects; second bar, tested insects. P, Pupae; pP, Pre-pupae; L4,4th instar larvae; L3, 3rd instar larvae.

Mamestra brassicae = test: Cabbage moth larval toxicity test on artificial medium with toxin; type: in vivo; details: 1000 µg PA1b per g of diet, larvae L1 to pupa; data not shown
Protocol: The cabbage moth Mamestra brassicae (Lepidoptera) was grown on the artificial medium described by Poitout and Bues ([1974]). PA1b was added to this media and the mortality of larvae (from L1 to pupa) was monitored daily.
as §4

[3] = target: PA1b binding protein on membrane extracts; test: 125I-PA1b binding (competition) on insect membrane extracts; parameters: species or system Mamestra brassicae; details: M. brassicae membrane extracts; competition with purified 3741 isoform
Protocol: as §1
The peptidic toxin PA1b-3471 isoform was labelled with I^125 to a specific radioactivity of about 900 Ci.mmor^-1, and then used for binding studies with membrane extracts, according to Gressent et al. ([2003]).
PA1b binding activity was present in all insect species, except for the resistant weevil strains and the pea specific pest Bruchus pisorum, regardless of the sensitivity or insensitivity of these insects to PA1b toxicity, as evaluated from our insect bioassays. […] The relative abundance of the binding sites was also slightly different in this group of species, varying from 10 pmol/mg of protein for T. pretiosum to a maximum of 79 pmol/mg of protein for M. persicae.

Ephestia kuehniella = details: ref Delobel et al 1998; cited from earlier work
Protocol: Ephestia kuehniella was previously found to be sensitive to the toxin ([Delobel et al 1998]). In contrast, 1000 µg PA1b per g of diet had no effect on the cabbage moth Mamestra brassicae, either on the mortality or on the development and ecdysis of the insects (data not shown).

Sitophilus granarius = test: Toxicity assay on cereal weevil adults, toxin in food, survival analysis; type: in vivo; details: S. granarius Brayard strain
Protocol: (§5) Cereal weevils (Sitophilus oryzae, S. zeamais and S. granarius, Coleoptera) were reared for more than 10 years in our laboratory on wheat seeds at […] 70% RH. Resistant strains were reared on pea seeds. Tests and survival analysis were performed on adults, as fully described in Louis et al ([2004]).
as §4

Sitophilus zeamais = test: as above; type: in vivo; details: S. zeamais LS strain, day 7, confidence interval in brackets
Protocol: as §5, §4

Sitophilus oryzae = test: as above; type: in vivo; details: dose-response, PA1b isoform mixture in food, confidence interval in brackets
Protocol: as §5, §4

ASCNGVCSPFEMPPCGTSACRCIPVGLVIGYCR NPSG (bicyclic or more) [PA1b, plant peptide of 37 amino acids purified from pea (Pisum sativum) seeds; entomotoxic cystine-knot peptide with three disulfide bonds]
recovered PA1b after incubation with insect proteins versus heat-denatured control [1]: without any difference between control and test assays
recovered PA1b after incubation with insect proteins versus heat-denatured control [2]: very close to the control test
share of survivors that reached the pupal stage (Harmonia axyridis; by day 12): half
insects that reached the L4 stage (Harmonia axyridis; started on L3 larvae, after three days (all control insects reached L4)): 30%
survival (Harmonia axyridis; started on L3 larvae, by day 12 (control 75%)): 15%
effect on mortality, development and ecdysis (Mamestra brassicae): no effect
Kd [3]: 20 nM
sensitivity to the toxin (Ephestia kuehniella): sensitive
mortality (Sitophilus granarius; highest tested dose 1000 µg/g): 27%
LD50 estimated by extrapolation (Sitophilus granarius; extrapolated, without confidence interval): ca. 3500 µg/g
LC50 (Sitophilus zeamais): 234 [125–630] µg/g
LD50 at day 7 (Sitophilus oryzae; S. oryzae strain Bouriz, adults): 501 [281–984] µg/g
LD50 at day 7 (Sitophilus oryzae; S. oryzae strain Bénin, adults): 446 [251–1584] µg/g
LD50 at day 7 (Sitophilus oryzae; S. oryzae strain WAA42, adults): 489 [290–1318] µg/g
